One data set relates to Bacteroides fragilis. Put plainly: Toxicity against Bacteroides fragilis assessed as inhibition of microbe growth. The format is organism-based.
The subject of data set [1] is Clostridioides difficile. Put plainly: Antimicrobial activity against metronidazole-resistant Clostridium difficile. Format: functional.
Data set [2] deals with Staphylococcus aureus. The data set is described as follows: Antimicrobial activity against daptomycin-non-susceptible Staphylococcus aureus 5004 incubated anaerobically at 37 degC for 48 hrs by agar dilution method. Format: functional. The settings on record: Staphylococcus aureus, 5004, 48 h. (In general: In agar dilution the substance is mixed into plates at graded concentrations.)

For the next data set, the system named is Enterococcus faecium. Put plainly: Antimicrobial activity against daptomycin-resistant Enterococcus faecium ATCC 6569 incubated anaerobically at 37 degC for 48 hrs by agar dilution method. The format is functional. The settings on record: ATCC 6569, 48 h.
Data set [3] has as its system Staphylococcus aureus. Put plainly: Antimicrobial activity against daptomycin-non-susceptible Staphylococcus aureus 5034 incubated anaerobically at 37 degC for 48 hrs by agar dilution method. The format is functional. As to conditions: Staphylococcus aureus, 5034, 48 h.
For data set [4], the system named is Staphylococcus aureus. The data set is described as follows: Antimicrobial activity against daptomycin-non-susceptible Staphylococcus aureus 42 incubated anaerobically at 37 degC for 48 hrs by agar dilution method. Format: functional. As to conditions: Staphylococcus aureus, 42, 48 h.
Data set [5] has as its system Staphylococcus aureus. Put plainly: Antimicrobial activity against daptomycin-non-susceptible Staphylococcus aureus 1179 incubated anaerobically at 37 degC for 48 hrs by agar dilution method. The settings on record: Staphylococcus aureus, 1179, 48 h. The format is functional.
Data set [6] concerns Staphylococcus aureus. Put plainly: Antimicrobial activity against daptomycin-non-susceptible Staphylococcus aureus 5080 incubated anaerobically at 37 degC for 48 hrs by agar dilution method. Format: functional. The settings on record: Staphylococcus aureus, 5080, 48 h.
In data set [7] the test system is Staphylococcus aureus. The data set is described as follows: Antimicrobial activity against daptomycin-non-susceptible Staphylococcus aureus 5063 incubated anaerobically at 37 degC for 48 hrs by agar dilution method. The settings on record: Staphylococcus aureus, 5063, 48 h. Format: functional.
For data set [8], the system named is Clostridioides difficile. The data set is described as follows: Antimicrobial activity against daptomycin-resistant Clostridium difficile NAP1 incubated anaerobically at 37 degC for 48 hrs by agar dilution method. The format is functional. As to conditions: NAP1, 48 h.
Data set [9] relates to Staphylococcus aureus. Put plainly: Antimicrobial activity against daptomycin-non-susceptible Staphylococcus aureus 5012 incubated anaerobically at 37 degC for 48 hrs by agar dilution method. The format is functional. The settings on record: Staphylococcus aureus, 5012, 48 h.
Data set [10] concerns Staphylococcus aureus. Put plainly: Antimicrobial activity against daptomycin-non-susceptible Staphylococcus aureus 5008 incubated anaerobically at 37 degC for 48 hrs by agar dilution method. The settings on record: Staphylococcus aureus, 5008, 48 h. The format is functional.
Data set [11] relates to Staphylococcus aureus. Put plainly: Antimicrobial activity against daptomycin-non-susceptible Staphylococcus aureus 5010 incubated anaerobically at 37 degC for 48 hrs by agar dilution method. As to conditions: Staphylococcus aureus, 5010, 48 h. The format is functional.
Another data set relates to Enterococcus faecalis. The data set is described as follows: Antimicrobial activity against daptomycin-resistant Enterococcus faecalis ATCC 49452 incubated anaerobically at 37 degC for 48 hrs by agar dilution method. The format is functional. As to conditions: ATCC 49452, 48 h.
Data set [12] deals with Staphylococcus aureus. Put plainly: Antimicrobial activity against daptomycin-non-susceptible Staphylococcus aureus 5003 incubated anaerobically at 37 degC for 48 hrs by agar dilution method. The format is functional. The settings on record: Staphylococcus aureus, 5003, 48 h.
The test system of data set [13] is Staphylococcus aureus. The data set is described as follows: Antimicrobial activity against daptomycin-non-susceptible Staphylococcus aureus 5033 incubated anaerobically at 37 degC for 48 hrs by agar dilution method. The format is functional. As to conditions: Staphylococcus aureus, 5033, 48 h.
The subject of data set [14] is Staphylococcus aureus. The data set is described as follows: Antimicrobial activity against daptomycin-non-susceptible Staphylococcus aureus 5076 incubated anaerobically at 37 degC for 48 hrs by agar dilution method. The format is functional. As to conditions: Staphylococcus aureus, 5076, 48 h.
The test system of data set [15] is Staphylococcus aureus. The data set is described as follows: Antimicrobial activity against daptomycin-susceptible Staphylococcus aureus ATCC 29213 incubated anaerobically at 37 degC for 48 hrs by agar dilution method. As to conditions: ATCC 29213, 48 h. The format is functional.
For data set [16], the system named is Staphylococcus aureus. Put plainly: Antimicrobial activity against daptomycin-non-susceptible Staphylococcus aureus 5017 incubated anaerobically at 37 degC for 48 hrs by agar dilution method. Format: functional. The settings on record: Staphylococcus aureus, 5017, 48 h.
The test system of data set [17] is Staphylococcus aureus. The data set is described as follows: Antimicrobial activity against daptomycin-non-susceptible Staphylococcus aureus 1326 incubated anaerobically at 37 degC for 48 hrs by agar dilution method. Format: functional. The settings on record: Staphylococcus aureus, 1326, 48 h.
Data set [18] has as its system Staphylococcus aureus. Put plainly: Antimicrobial activity against daptomycin-non-susceptible Staphylococcus aureus 5060 incubated anaerobically at 37 degC for 48 hrs by agar dilution method. As to conditions: Staphylococcus aureus, 5060, 48 h. Format: functional.
For data set [19], the system named is Staphylococcus aureus. Put plainly: Antimicrobial activity against daptomycin-non-susceptible Staphylococcus aureus 1146 incubated anaerobically at 37 degC for 48 hrs by agar dilution method. The format is functional. As to conditions: Staphylococcus aureus, 1146, 48 h.
In data set [20] the test system is Staphylococcus aureus. Put plainly: Antimicrobial activity against daptomycin-non-susceptible Staphylococcus aureus 5005 incubated anaerobically at 37 degC for 48 hrs by agar dilution method. Format: functional. As to conditions: Staphylococcus aureus, 5005, 48 h.
Data set [21] concerns Staphylococcus aureus. Put plainly: Antimicrobial activity against daptomycin-non-susceptible Staphylococcus aureus 1616 incubated anaerobically at 37 degC for 48 hrs by agar dilution method. Format: functional. As to conditions: Staphylococcus aureus, 1616, 48 h.
The test system of data set [22] is Staphylococcus aureus. Put plainly: Antimicrobial activity against daptomycin-non-susceptible Staphylococcus aureus 5081 incubated anaerobically at 37 degC for 48 hrs by agar dilution method. The format is functional. The settings on record: Staphylococcus aureus, 5081, 48 h.
In data set [23] the test system is Staphylococcus aureus. Put plainly: Antimicrobial activity against daptomycin-non-susceptible Staphylococcus aureus 5059 incubated anaerobically at 37 degC for 48 hrs by agar dilution method. Format: functional. The settings on record: Staphylococcus aureus, 5059, 48 h.
Data set [24] concerns Staphylococcus aureus. Put plainly: Antimicrobial activity against daptomycin-non-susceptible Staphylococcus aureus 5091 incubated anaerobically at 37 degC for 48 hrs by agar dilution method. Format: functional. The settings on record: Staphylococcus aureus, 5091, 48 h.
Data set [25] relates to Staphylococcus aureus. Put plainly: Antimicrobial activity against daptomycin-non-susceptible Staphylococcus aureus 5016 incubated anaerobically at 37 degC for 48 hrs by agar dilution method. The settings on record: Staphylococcus aureus, 5016, 48 h. Format: functional.
Data set [26] relates to Staphylococcus aureus. The data set is described as follows: Antimicrobial activity against daptomycin-non-susceptible Staphylococcus aureus 5014 incubated anaerobically at 37 degC for 48 hrs by agar dilution method. Format: functional. As to conditions: Staphylococcus aureus, 5014, 48 h.
In data set [27] the test system is Staphylococcus aureus. The data set is described as follows: Antimicrobial activity against daptomycin-non-susceptible Staphylococcus aureus 5006 incubated anaerobically at 37 degC for 48 hrs by agar dilution method. The format is functional. The settings on record: Staphylococcus aureus, 5006, 48 h.
For data set [28], the system named is Staphylococcus aureus. The data set is described as follows: Antimicrobial activity against daptomycin-non-susceptible Staphylococcus aureus 278 incubated anaerobically at 37 degC for 48 hrs by agar dilution method. The format is functional. The settings on record: Staphylococcus aureus, 278, 48 h.
Data set [29] deals with Staphylococcus aureus. Put plainly: Antimicrobial activity against daptomycin-non-susceptible Staphylococcus aureus 5030 incubated anaerobically at 37 degC for 48 hrs by agar dilution method. Format: functional. The settings on record: Staphylococcus aureus, 5030, 48 h.
The test system of data set [30] is Staphylococcus aureus. Put plainly: Antimicrobial activity against daptomycin-non-susceptible Staphylococcus aureus 1145 incubated anaerobically at 37 degC for 48 hrs by agar dilution method. The settings on record: Staphylococcus aureus, 1145, 48 h. The format is functional.
Data set [31] concerns Clostridioides difficile. The data set is described as follows: Antimicrobial activity against daptomycin-resistant Clostridium difficile ATCC 43596 infected in Syrian golden hamster model of Clostridium difficile-associated diarrhea assessed as protection against microbial infection by measuring survival at day 25 to 26 at 0.5 mg/kg treated once daily for 5 consecutive days starting 4 hrs after spore inoculation. Format: functional.

The subject of data set [32] is Clostridioides difficile. The data set is described as follows: Antimicrobial activity against vancomycin-resistant Clostridium difficile. Format: functional.

Molecules are shown by their SMILES. Converted amounts (≈) assume the structure as drawn. Bounds are passed on as bounds.

Regarding `CCCCCc1ccc(/C(C)=C/C(=O)N[C@@H](Cc2c[nH]c3ccccc23)C(=O)N[C@H](CC(N)=O)C(=O)N[C@@H](CC(=O)O)C(=O)N[C@@H]2C(=O)NCC(=O)N[C@@H](CCCN)C(=O)N[C@@H](CC(=O)O)C(=O)N[C@H](C)C(=O)N[C@@H](CC(=O)O)C(=O)NCC(=O)N[C@H](CO)C(=O)N[C@@H]([C@@H](C)CC(=O)O)C(=O)N[C@@H](CC(=O)c3ccccc3N)C(=O)O[C@@H]2C)cc1`, in the data set on Bacteroides fragilis, the MIC entry is “>= 8192 ug ml-1”.

`Cc1ncc([N+](=O)[O-])n1CCO` [METRONIDAZOLE] yielded an MIC against Clostridioides difficile [1] of at least 8 µg/mL.

`CCCCCCCCCC(=O)N[C@@H](Cc1c[nH]c2ccccc12)C(=O)N[C@H](CC(N)=O)C(=O)N[C@@H](CC(=O)O)C(=O)N[C@@H]1C(=O)NCC(=O)N[C@@H](CCCN)C(=O)N[C@@H](CC(=O)O)C(=O)N[C@H](C)C(=O)N[C@@H](CC(=O)O)C(=O)NCC(=O)N[C@H](CO)C(=O)N[C@@H]([C@H](C)CC(=O)O)C(=O)N[C@@H](CC(=O)c2ccccc2N)C(=O)O[C@@H]1C`: the MIC in the data set with Staphylococcus aureus [2] was 1 µg/mL (≈ 0.617 µM); against Enterococcus faecium, over 32 µg/mL; in the data set with Staphylococcus aureus [3] it was 2 µg/mL (≈ 1.23 µM); in the data set on Staphylococcus aureus [4], 0.5 µg/mL (≈ 0.309 µM); in the data set on Staphylococcus aureus [5], 2 µg/mL (≈ 1.23 µM); with Staphylococcus aureus [6], 4 µg/mL (≈ 2.47 µM). For the same molecule, the MIC in the data set with Staphylococcus aureus [7] was 8 µg/mL (≈ 4.94 µM); in the data set on Clostridioides difficile [8] it was 2 µg/mL (≈ 1.23 µM); in the data set on Staphylococcus aureus [9], 2 µg/mL (≈ 1.23 µM); against Staphylococcus aureus [10] it was 2 µg/mL (≈ 1.23 µM); against Staphylococcus aureus [11], 0.5 µg/mL (≈ 0.309 µM); against Enterococcus faecalis, over 32 µg/mL. In addition, the MIC against Staphylococcus aureus [12] came to 2 µg/mL (≈ 1.23 µM); against Staphylococcus aureus [13] it was 1 µg/mL (≈ 0.617 µM); in the data set on Staphylococcus aureus [14], 2 µg/mL (≈ 1.23 µM); in the data set with Staphylococcus aureus [15], 0.5 µg/mL (≈ 0.309 µM); in the data set with Staphylococcus aureus [16] it was 4 µg/mL (≈ 2.47 µM); in the data set on Staphylococcus aureus [17], 4 µg/mL (≈ 2.47 µM). Also, the MIC in the data set with Staphylococcus aureus [18] is 4 µg/mL (≈ 2.47 µM); against Staphylococcus aureus [19] it was 1 µg/mL (≈ 0.617 µM); in the data set on Staphylococcus aureus [20], 4 µg/mL (≈ 2.47 µM); in the data set on Staphylococcus aureus [21], 16 µg/mL (≈ 9.87 µM); with Staphylococcus aureus [22], 4 µg/mL (≈ 2.47 µM); against Staphylococcus aureus [23] it was 4 µg/mL (≈ 2.47 µM). For the same molecule, the MIC against Staphylococcus aureus [24] stood at 2 µg/mL (≈ 1.23 µM); with Staphylococcus aureus [25], 4 µg/mL (≈ 2.47 µM); against Staphylococcus aureus [26], 0.5 µg/mL (≈ 0.309 µM); with Staphylococcus aureus [27] it was 2 µg/mL (≈ 1.23 µM); against Staphylococcus aureus [28] it was 16 µg/mL (≈ 9.87 µM); with Staphylococcus aureus [29], 8 µg/mL (≈ 4.94 µM). The molecule also returned an MIC in the data set on Staphylococcus aureus [30] of 1 µg/mL (≈ 0.617 µM).

As for `CN[C@H](CC(C)C)C(=O)N[C@H]1C(=O)N[C@@H](CC(N)=O)C(=O)N[C@H]2C(=O)N[C@H]3C(=O)N[C@H](C(=O)N[C@H](C(=O)O)c4cc(O)cc(O)c4-c4cc3ccc4O)[C@H](O)c3ccc(c(Cl)c3)Oc3cc2cc(c3O[C@@H]2O[C@H](CO)[C@@H](O)[C@H](O)[C@H]2O[C@H]2C[C@](C)(N)[C@H](O)[C@H](C)O2)Oc2ccc(cc2Cl)[C@H]1O` [VANCOMYCIN], the survival at 0.5 mg/kg in the data set with Clostridioides difficile [31] was determined as 25%. The molecule also showed an MIC in the data set on Clostridioides difficile [32] of at least 4 µg/mL.
